The test system of data set [1] is rats. The settings on record: cited from earlier work.
A short description of data set [2]: in vivo. The settings on record: rat, po. The method, then:
(§1) At the end of the infusions and at fixed time points, CSF samples (50 μL) were withdrawn and blood samples (100 μL) were collected. The CSF was withdrawn using the cisternal puncture method described by van den Berg et al., which requires a single needle stick and allows the collection of serials (40–50 μL) CSF samples that are virtually blood-free. A total volume of about a maximum of 150 μL of CSF/rat (i.e., three 50 μL samples/rat) was collected during the experimental session, choosing the time points (n = 3–5, taking into account a maximum of three collections per rat) in order to allow the restoring of the CSF physiological volume.
(§2) Each type of formulation was administered to a group of four rats.
(§3) In particular, 4.2 mL of EU-CD formulation were administered to rats (500 mg/kg dose).
(§4) In particular, 320 μL of EU-SL formulation were administered to rats (500 mg/kg dose).
(§5) Free cinnamaldehyde (100 mg) was orally administered by gavage to rats kept fasting since 24 h. In particular, 95 μL of cinnamaldehyde (density = 1.05 g/mL) were dissolved in 905 μL of corn oil and administered to rats (400 mg/kg dose).
(§6) The solid AC-GN formulation (14% w/w cinnamaldehyde) was mixed with palatable food in order to induce their oral intake by the rats kept fasting since 24 h. In particular, the rats assumed a dose of 100 mg of cinnamaldehyde (400 mg/kg) contained in 714 mg of AC-GN.
(§7) After the administrations, blood (100 μL) and CSF samples (50 μL) were serially collected at fixed time points from each rat and treated as described above in order to quantify the compounds.

The nature of data set [3]: in vivo. The settings on record: for Kp at 10 min: R: ratio of concentration between CSF and bloodstream at Tmax. The method, then: (§8) A saline solution (0.9% NaCl) was added to a mixture of cinnamaldehyde (density = 1.05 g/mL) and Cremophor® RH 40 (1:1 v/v) in order to obtain a 12.5 mg/mL cinnamaldehyde emulsion in the presence of ethanol (10% of final volume). A group (n = 4) of male Wistar rats (200–250 g) fasted for 24 h was anesthetized during the experimental period and received 0.4 mL via a femoral intravenous infusion (rate = 0.2 mL/min; 2 min) of 12.5 mg/mL cinnamaldehyde emulsion (20 mg/kg cinnamaldehyde dose).
as §1
(§9) The chromatographic apparatus consisted of a modular system (model LC-10 AD VD pump and model SPD-10A VP variable wavelength UV−vis detector; Shimadzu, Kyoto, Japan) and an injection valve with 20 μL sample loop (model 7725; Rheodyne, IDEX, Torrance, CA, USA). Separations were performed at room temperature on a 5 μm Hypersil BDS C-18 column (150 mm × 4.6 mm i.d.; Alltech Italia Srl, Milan, Italy) equipped with a guard column packed with the same Hypersil material. The volume injection was 10 μL. Data acquisition and processing were performed on a personal computer using CLASS-VP Software, version 7.2.1 (Shimadzu Italia, Milan, Italy).
For CSF simulation, standard aliquots of balanced solution (Dulbecco’s phosphate buffer saline—DPBS—without calcium and magnesium) in the presence of 0.45 mg/mL BSA were used.

Data set [4] is described as follows: in vivo. The settings on record: male, Wistar, rat, in vivo, iv. The method, then: as §8, §1
The samples were centrifuged at 12,500× g for 5 min, then about 300 μL of supernatant were withdrawn and further centrifuged. […] As a control, a blood sample (100 μL) was collected by each rat before the administrations of the drugs. The control samples were immediately added to 300 μL of ice-cold CH3CN in the absence of internal standard, then treated as described above.
For cinnamaldehyde analysis the blood samples were hemolyzed immediately after their collection with 500 μL of ice-cold water, and then 50 μL of 10% sulfosalicylic acid and 50 μL of internal standard (100 μM carbazole dissolved in a water-methanol mixture 50:50 v/v) was added. The samples were extracted twice with 1 mL of water-saturated ethyl acetate, and, after centrifugation at 12,500× g for 10 min, the organic layer was reduced to dryness under a mild nitrogen stream at room temperature. Then, 200 μL of a water-acetonitrile mixture (50:50 v/v) were added, and after centrifugation, 10 μL were analyzed via HPLC (see below) for cinnamaldehyde detection. As a control, a blood sample (100 μL) was collected by each rat before the administration of the drug. The control samples were treated as described above in the absence of internal standard.
(§10) In particular, all the AUC values referred to the bloodstream were calculated by the trapezoidal method within the last time point detected, and the remaining area was obtained as the ratio between the compound concentration detected at the last time point and the elimination constant (kel), which was obtained from the slope of the semilogarithmic plots (−slope × 2.3). The clearance (Cl) and distribution volume (Vd) values were calculated according to the non-compartmental model as the ratios “dose/AUC” and “Cl/kel”, respectively, where kel is the elimination constant obtained by the slope of semilogarithmic plot.
as §9
The detector was set at 205 nm.

For data set [5] the following is noted: rat, in vivo, cited from earlier work.
A short description of data set [6]: in vivo. The conditions noted are these: Wistar, rat; for bioavailability: F: absolute bioavailability. The method, then:
as §2, §3, §4, §5, §6, §7, §10

Data set [7] relates to PC12 cells. In words: Dopamine release from neuronal differentiated PC12 cells (ELISA). Type of data set: cell-based, rat. The settings on record: 60 mM K^+, 5 min, control stimulus; baseline 393 ± 12 pg/mL. The method, then: PC12 cell line (RRID:CVCL_0481), derived from rat adrenal gland pheochromocytoma, was a kind gift from Dr Federica Brugnoli from the Department of Translational Medicine, University of Ferrara, Ferrara (Italy). The cells were grown in RPMI-1640 (HiGlutaXL) medium (Microtech, Naples, Italy), supplemented with 100 µg/mL streptomycin and 100 IU/mL penicillin, 10% horse serum (HS), and 5% fetal bovine serum (FBS). PC12 cells were gently removed from the 4 µg/cm^2 collagen IV-coated flask with a rubber scraper, transferred as cell suspension into a Falcon tube and resuspended through a sterile tip to avoid any clumping, then split into separate flasks twice weekly. To differentiate neuronal phenotypes, PC12 cells were seeded in 4 µg/cm^2 collagen IV-coated 12-well plates at a density of 5000 cells/well, and they were then left to adhere to the well for 24 h. […] All the proliferative and differentiated cultures were maintained at 37 °C in a humidified 5% CO2 atmosphere.
PC12 cells differentiated to neuronal-like phenotype in collagen IV-treated 12-well plates, were first synchronized all to the same circadian phase and cell cycle by a serum shock (50% HS and 50% DMEM HiGlutaXL) for 2 h at 37 °C [49] to achieve a synchronous release of dopamine. Synchronization medium was then aspirated off, cells were washed with 3 × 1 mL and equilibrated for 15 min at 37 °C in 1 mL of Krebs Ringer HEPES (KRH) physiological buffer, following the recipe of Mount et al. (25 mM HEPES/Tris, pH 7.4, 1.2 mM KH2PO4, 125 mM NaCl, 4.8 mM KCl, 1.2 mM MgSO4, 2.2 mM CaCl2, 5.6 mM glucose, 1.0 mM ascorbic acid, 10 µM pargyline, 1.0 µM nomifensine). […] To remove cell debris, all samples of 1 mL incubation KRH at the end of treatments were centrifuged at 1000× g for 20 min at 4 °C and stored at −20 °C until dopamine levels were determined by ELISA assay.
Dopamine levels in 1 mL incubation KRH buffer were detected by means of an ELISA assay, based on the […] ELISA principle for detection of dopamine, following manufacturer’s instructions (IBL International, Hamburg, Germany–catalog no: RE59161; purchased from Tecan Italia S.r.I, Milan, Italy). After the substrate reaction, the intensity of the developed color was proportional to the amount of dopamine, detected at 450 nm using a microplate reader spectrophotometer (Sunrise® Microplate Reader, Tecan Trading AG, Männedorf, Switzerland). Results of samples were determined directly using the standard curve. Results are presented as mean ± SE values of four independent experiments. Data were plotted and analyzed with GraphPad software (Prism, version 7.0, San Diego, CA, USA).
For orientation: An ELISA detects its analyte on a solid surface through an enzyme-linked reagent.

Data set [8] relates to PC12 cells. The conditions noted are these: cited from earlier work.
The mark [9] stands for this setting: male, Wistar, rat, in vivo, iv, 20 mg/kg.

Like-named read-outs stand apart in the source and are kept apart here. Bounds are passed on as bounds.

In general, AUC refers to concentration integrated over time. A high value points to high exposure. Usually Cmax stands for the peak of the concentration-time curve. The term Kp denotes the ratio of the level in a tissue or fluid to that in plasma or blood. For orientation: Vd means the apparent volume that relates the amount in the body to the concentration in plasma or blood. High values mean wide distribution into tissue, low ones little distribution into tissue. For orientation: clearance means the rate of elimination divided by the concentration. For orientation: half-life means how long it takes for the measured level to halve. Lower therefore signals rapid decline. One may read the bioavailability as the share of a dose that reaches the circulation, judged against a reference dose that is usually intravenous.

On to `O=C/C=C/c1ccccc1` [Cinnamaldehyde, cinnamaldehyde], for which, in data set [1] (oral), the “oral LD50” value is listed as “about 3 g/kg”. Besides, in data set [1] (rats, iv), the “intravenous dose known to induce toxicity” value is on record as 25 mg/kg and the “intravenous dose that appears lethal” value is recorded as 30 mg/kg. For the same compound, in data set [2], the “AUC in CSF to last time of detection” value stood at 0 µg·min/mL and the “Tmax: time of Cmax in CSF” value worked out at 0 h. In data set [3] (male, Wistar, rat, in vivo, iv), this compound gave an AUC of 1610 ng·h/mL. In data set [3] (setting [9]), this compound gave an area under the curve (AUC) of 1610 ng·h/mL and a Cmax of 2040 ± 360 ng/mL. The Kp at 10 min in data set [3] (male, Wistar, rat, in vivo, iv, rat, iv, 10 min from the end of infusion) was 0.156 ± 0.038. The “time within which CSF concentrations decreased to zero or near to zero” value in data set [3] (rat CSF, iv 20 mg/kg) is reported as no more than 75 min. The “R: ratio of concentration between CSF and bloodstream at Tmax” value in data set [3] (rat, iv, 10 min from the end of infusion) is recorded as 0.16 ± 0.04. In data set [4], this compound displayed a Vd of 1.32 ± 0.19 L/kg, a clearance of 39.5 ± 1.7 mL/min/kg and a half-life of 23.1 ± 1.6 min. In data set [5] (iv, 20 mg/kg), the C0 entry is “about 0.5 μg/mL”. The C0 entry in data set [5] (iv, 25 mg/kg) is given as “about 20 mg/mL”. Besides, the “F (oral bioavailability)” value in data set [5] (po) is listed as “less than 20%”. The “Tmax: time of Cmax in the bloodstream” value in data set [6] was 40 min. Moreover, in data set [6] (po), the “F: absolute bioavailability” value is recorded as 7.33 ± 0.37%, the “RB: relative bioavailability” value turned out to be 100% and the bioavailability stood at 7%.
Turning to `C=C(C)[C@H]1CC=C(C)CC1` [D-Limonene, D-limonene], in data set [2], the “AUC in CSF to last time of detection” value stood at 0 µg·min/mL and the “Tmax: time of Cmax in CSF” value was determined as 0 h. The “detection in the CSF of rats after intravenous administration” value in data set [3] (iv 100 mg/kg, within 90 min after the end of infusion) is “not detected”. Also, in data set [3] (male, Wistar, rat, in vivo, iv), the “AUC in CSF from the end of infusion to last time of detection” value was 0 µg·min/mL and the Kp at 10 min came to 0. Also, in data set [4], the “Cl: clearance” value amounted to 284 ± 10 mL·min/kg, the Vd worked out at 5.52 ± 0.558 L/kg and the half-life was 12.4 ± 0.9 min. The clearance in data set [4] (Cl: clearance) turned out to be 284 ± 10.4 mL/min/kg. Further, in data set [5] (iv, 200 mg/kg), the C0 entry is recorded as “higher than 80 μg/mL” and the “terminal t1/2” value is on record as 280 min. In data set [5] (po, 75 mg/kg), the Cmax was roughly 300 ng/mL. Further, the Cmax entry in data set [5] (po, 200 mg/kg) was “about 11 μg/mL”. Besides, the “Tmax: time of Cmax in the bloodstream” value in data set [6] stood at 30 min. Further, in data set [6] (po), the “F: absolute bioavailability” value is listed as 7.04 ± 0.96% and the bioavailability was determined as 7%.
As to `[Cl-].[K+]` [K^+, reference compound], in data set [7], the dopamine release stood at 4340 ± 265 pg/mL.
Turning to `Oc1ccc(/C=C/c2cc(O)cc(O)c2)cc1` [resveratrol], the “most effective concentration in increasing the viability of PC12 cells” value in data set [8] is 25 µM.

Values taken from paper PMC9862186 (International Journal of Molecular Sciences, 2023).
